The assay addresses Cation-independent mannose-6-phosphate receptor (Homo sapiens, UniProt P11717). In words: Binding of the M6P Analogs of the Invention with CI-M6PR: 96-Well plates (Maxisorp Nunc) are incubated overnight at 4° C. with 200 μl of PMP (pentamannose 6-phosphate) at the concentration of 200 μg·ml−1, in carbonate buffer (NaHCO3/Na2CO3 at 0.1M, pH 9.6). The following day, the solution containing the residual PMP is discarded and the wells are saturated, for 1 h at ambient temperature, with 360 μl of 1% gelatin (Type A from Porcine Skin) diluted in PBS (1.9 mM NaH2PO4, 8.1 mM Na2PO4 and 154 mM NaCl, pH 7.4). The wells are then rinsed five times with PBS to which 0.2% gelatin has been added. All the washes and also the dilutions are carried out in the solution of PBS to which 0.2% gelatin has been added. The M6P analogs to be tested at the various concentrations (from 10−2 to 10−7 M) are pre-incubated in the presence of pre-biotinylated CI-M6PR (M6PRb) ([…]) for 20 min, then 200 μl of the mixture are incubated in the wells for 2 h, at ambient temperature. After three washes, the wells are incubated for 1 h with a streptavidin-peroxidase solution (250 μl per well; 3.10−8 M). After three more washes, 200 μl of a solution of OPD (o-phenylenediamine, 1 mg·ml−1 in citrate buffer, pH 5.0, and 1 μl 30% H2O2.ml−1; Sigma Aldrich) are added. […].

Sequence of Cation-independent mannose-6-phosphate receptor (P11717 whole entry): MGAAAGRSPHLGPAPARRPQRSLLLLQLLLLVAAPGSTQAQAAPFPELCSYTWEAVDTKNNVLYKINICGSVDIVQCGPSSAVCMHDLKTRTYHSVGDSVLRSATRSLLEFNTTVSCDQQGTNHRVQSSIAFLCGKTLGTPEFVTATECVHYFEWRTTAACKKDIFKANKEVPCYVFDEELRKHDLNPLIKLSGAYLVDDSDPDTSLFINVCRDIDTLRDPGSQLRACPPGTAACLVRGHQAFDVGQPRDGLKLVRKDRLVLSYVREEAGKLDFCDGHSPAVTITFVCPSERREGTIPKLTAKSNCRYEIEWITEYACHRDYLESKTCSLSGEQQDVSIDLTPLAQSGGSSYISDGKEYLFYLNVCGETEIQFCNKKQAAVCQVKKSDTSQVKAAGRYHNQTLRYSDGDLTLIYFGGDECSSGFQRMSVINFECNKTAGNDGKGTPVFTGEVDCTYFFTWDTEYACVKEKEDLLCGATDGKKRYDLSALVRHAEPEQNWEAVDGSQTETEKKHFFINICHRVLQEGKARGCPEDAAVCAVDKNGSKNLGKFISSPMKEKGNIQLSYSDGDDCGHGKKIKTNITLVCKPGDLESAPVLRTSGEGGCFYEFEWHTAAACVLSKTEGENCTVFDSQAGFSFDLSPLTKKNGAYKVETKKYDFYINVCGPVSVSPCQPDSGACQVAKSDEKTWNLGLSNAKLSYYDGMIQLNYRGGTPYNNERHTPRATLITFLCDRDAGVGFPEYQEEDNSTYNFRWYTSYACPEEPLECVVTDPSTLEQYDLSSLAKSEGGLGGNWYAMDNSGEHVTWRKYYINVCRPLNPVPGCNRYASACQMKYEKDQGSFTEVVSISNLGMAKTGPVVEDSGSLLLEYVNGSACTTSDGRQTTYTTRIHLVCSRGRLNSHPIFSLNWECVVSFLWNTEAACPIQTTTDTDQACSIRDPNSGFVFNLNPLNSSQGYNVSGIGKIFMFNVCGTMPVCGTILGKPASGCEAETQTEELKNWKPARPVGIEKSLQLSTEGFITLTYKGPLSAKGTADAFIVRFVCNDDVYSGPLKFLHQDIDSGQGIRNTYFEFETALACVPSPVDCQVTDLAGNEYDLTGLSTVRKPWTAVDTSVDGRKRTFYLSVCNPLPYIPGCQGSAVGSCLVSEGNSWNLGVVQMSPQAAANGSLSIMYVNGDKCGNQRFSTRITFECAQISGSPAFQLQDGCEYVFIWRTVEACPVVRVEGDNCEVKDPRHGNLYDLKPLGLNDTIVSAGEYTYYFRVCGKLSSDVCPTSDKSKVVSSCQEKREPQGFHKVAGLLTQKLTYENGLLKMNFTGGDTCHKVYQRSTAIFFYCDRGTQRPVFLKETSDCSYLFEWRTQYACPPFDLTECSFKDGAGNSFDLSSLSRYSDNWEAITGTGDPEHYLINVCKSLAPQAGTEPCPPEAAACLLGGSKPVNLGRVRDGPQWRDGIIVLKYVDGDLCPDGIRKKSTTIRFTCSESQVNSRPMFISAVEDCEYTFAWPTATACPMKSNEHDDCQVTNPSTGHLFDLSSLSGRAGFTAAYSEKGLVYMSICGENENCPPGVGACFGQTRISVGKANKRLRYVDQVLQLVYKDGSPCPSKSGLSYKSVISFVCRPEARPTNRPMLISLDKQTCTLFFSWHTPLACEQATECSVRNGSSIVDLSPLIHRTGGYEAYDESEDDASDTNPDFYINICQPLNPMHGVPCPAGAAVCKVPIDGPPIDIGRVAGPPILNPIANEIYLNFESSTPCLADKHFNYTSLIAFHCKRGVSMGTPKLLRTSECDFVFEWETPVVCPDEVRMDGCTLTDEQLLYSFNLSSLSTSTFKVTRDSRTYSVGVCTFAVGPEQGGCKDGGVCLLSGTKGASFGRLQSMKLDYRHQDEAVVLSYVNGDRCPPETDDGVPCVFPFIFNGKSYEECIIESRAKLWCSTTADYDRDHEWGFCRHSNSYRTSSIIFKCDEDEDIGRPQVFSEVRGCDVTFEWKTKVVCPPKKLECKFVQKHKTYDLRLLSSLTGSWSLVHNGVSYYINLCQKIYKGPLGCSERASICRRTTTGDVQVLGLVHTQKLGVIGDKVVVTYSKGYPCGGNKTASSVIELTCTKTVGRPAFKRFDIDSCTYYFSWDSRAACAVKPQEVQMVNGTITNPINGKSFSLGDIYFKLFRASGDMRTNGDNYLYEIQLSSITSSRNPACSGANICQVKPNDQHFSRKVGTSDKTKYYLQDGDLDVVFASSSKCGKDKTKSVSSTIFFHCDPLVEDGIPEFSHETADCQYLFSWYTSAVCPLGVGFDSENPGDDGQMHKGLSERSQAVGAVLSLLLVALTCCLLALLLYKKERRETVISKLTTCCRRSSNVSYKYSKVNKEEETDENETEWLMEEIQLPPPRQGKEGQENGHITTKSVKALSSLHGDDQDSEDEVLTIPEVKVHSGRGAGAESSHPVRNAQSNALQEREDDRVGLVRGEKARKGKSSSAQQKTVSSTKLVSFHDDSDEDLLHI

By IC50 is commonly meant the concentration that gives 50% inhibition. As to `NCCO[C@H]1OC(CO)[C@@H](O)[C@H](O)C1O[C@H]1OC(CCP(=O)(O)O)[C@@H](O)[C@H](O)C1O` (stereo partly specified), the IC50 came to 5 µM.
